Values quoted from earlier work in paper PMC4959752, “Pharmacokinetics in Wistar Rats of 5-[(4-Carboxybutanoyl)Amino]-2-Hydroxybenzoic Acid: A Novel Synthetic Derivative of 5-Aminosalicylic Acid (5-ASA) with Possible Anti-Inflammatory Activity” (PLoS ONE, 2016).

How the values were obtained:
plasma protein = details: comparison value; cited from earlier work
[1] = literature value; cited from earlier work

## Nc1ccc(O)c(C(=O)O)c1 [5-ASA, 5-aminosalicylic acid]
Plasma protein
  protein binding: 40%

## CC(=O)Oc1ccccc1C(=O)O [aspirin]
[1]
  plasma half-life: 15 min
